Data as given in patent US11628144B2, “Iniparib formulations and uses thereof” (TriAct Therapeutics, Inc., priority 2017, dated 2023).
In brackets after ≈: the same amount, converted by molar mass.

Key:
[1] = tested on: cancer cells, including drug resistant cell lines; conditions: cited from earlier work
[2] = tissues including brain and cerebrospinal fluid (CSF); cited from earlier work
[3] = target: poly [ADP-ribose] polymerase 1 (PARP1) (Homo sapiens, UniProt P09874); conditions: observed in several studies; cited from earlier work
[4] = Solubility of iniparib in purified water; assay type: physicochemical

poly [ADP-ribose] polymerase 1 (PARP1), sequence (P09874 whole entry, species assumed): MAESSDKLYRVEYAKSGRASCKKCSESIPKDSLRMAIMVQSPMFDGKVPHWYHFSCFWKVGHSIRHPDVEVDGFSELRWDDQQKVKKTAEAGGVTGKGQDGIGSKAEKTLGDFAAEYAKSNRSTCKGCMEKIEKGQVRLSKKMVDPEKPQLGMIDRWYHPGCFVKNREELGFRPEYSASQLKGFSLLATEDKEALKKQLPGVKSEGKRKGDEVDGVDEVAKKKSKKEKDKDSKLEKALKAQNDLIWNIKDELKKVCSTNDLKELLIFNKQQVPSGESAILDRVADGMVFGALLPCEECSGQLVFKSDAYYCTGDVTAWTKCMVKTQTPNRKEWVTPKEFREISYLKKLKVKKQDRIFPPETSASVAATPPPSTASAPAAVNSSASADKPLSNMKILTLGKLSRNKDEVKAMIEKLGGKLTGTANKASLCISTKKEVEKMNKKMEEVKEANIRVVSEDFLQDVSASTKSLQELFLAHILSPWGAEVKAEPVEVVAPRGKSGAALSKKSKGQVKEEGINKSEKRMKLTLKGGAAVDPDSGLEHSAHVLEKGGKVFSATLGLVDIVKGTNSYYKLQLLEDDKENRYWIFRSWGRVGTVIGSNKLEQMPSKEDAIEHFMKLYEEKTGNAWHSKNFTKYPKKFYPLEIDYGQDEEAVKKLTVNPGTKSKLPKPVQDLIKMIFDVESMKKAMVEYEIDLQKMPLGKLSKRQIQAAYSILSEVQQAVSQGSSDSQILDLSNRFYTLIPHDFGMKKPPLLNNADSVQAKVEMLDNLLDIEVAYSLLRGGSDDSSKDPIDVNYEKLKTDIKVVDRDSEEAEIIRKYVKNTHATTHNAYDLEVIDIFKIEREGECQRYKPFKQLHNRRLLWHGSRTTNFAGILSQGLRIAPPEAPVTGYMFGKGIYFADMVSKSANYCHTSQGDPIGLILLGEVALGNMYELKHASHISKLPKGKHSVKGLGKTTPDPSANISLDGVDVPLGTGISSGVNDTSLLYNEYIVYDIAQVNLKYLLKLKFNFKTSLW

- solubility [4]: ~182 µg/mL (≈ 623 µM)
SMILES: NC(=O)c1ccc(I)c([N+](=O)[O-])c1 [Iniparib, 4-iodo-3-nitrobenzamide]
- activity against cancer cells in vitro [1]: active against a broad range of cancer cells in vitro
- distribution into tissues [2]: distributes rapidly and widely into tissues, including the brain and cerebrospinal fluid (CSF)
- potency against PARP1 [3]: low potency
